The record followed here is patent US11220504B2, “Pyrrolo[3,2-d] pyrimidine derivatives for the treatment of viral infections and other diseases” (JANSSEN SCIENCES IRELAND UNLIMITED COMPANY, priority 2012, dated 2022).

One test concerns the target T1, human TLR7 (Homo sapiens, UniProt Q9NYK1).
T1 construct: expressed in transfected cells; host or cells: HEK293 cells, transient transfection with CMV-TLR7 plasmid and NFκB-luc plasmid
T1 sequence (Q9NYK1 27-1049): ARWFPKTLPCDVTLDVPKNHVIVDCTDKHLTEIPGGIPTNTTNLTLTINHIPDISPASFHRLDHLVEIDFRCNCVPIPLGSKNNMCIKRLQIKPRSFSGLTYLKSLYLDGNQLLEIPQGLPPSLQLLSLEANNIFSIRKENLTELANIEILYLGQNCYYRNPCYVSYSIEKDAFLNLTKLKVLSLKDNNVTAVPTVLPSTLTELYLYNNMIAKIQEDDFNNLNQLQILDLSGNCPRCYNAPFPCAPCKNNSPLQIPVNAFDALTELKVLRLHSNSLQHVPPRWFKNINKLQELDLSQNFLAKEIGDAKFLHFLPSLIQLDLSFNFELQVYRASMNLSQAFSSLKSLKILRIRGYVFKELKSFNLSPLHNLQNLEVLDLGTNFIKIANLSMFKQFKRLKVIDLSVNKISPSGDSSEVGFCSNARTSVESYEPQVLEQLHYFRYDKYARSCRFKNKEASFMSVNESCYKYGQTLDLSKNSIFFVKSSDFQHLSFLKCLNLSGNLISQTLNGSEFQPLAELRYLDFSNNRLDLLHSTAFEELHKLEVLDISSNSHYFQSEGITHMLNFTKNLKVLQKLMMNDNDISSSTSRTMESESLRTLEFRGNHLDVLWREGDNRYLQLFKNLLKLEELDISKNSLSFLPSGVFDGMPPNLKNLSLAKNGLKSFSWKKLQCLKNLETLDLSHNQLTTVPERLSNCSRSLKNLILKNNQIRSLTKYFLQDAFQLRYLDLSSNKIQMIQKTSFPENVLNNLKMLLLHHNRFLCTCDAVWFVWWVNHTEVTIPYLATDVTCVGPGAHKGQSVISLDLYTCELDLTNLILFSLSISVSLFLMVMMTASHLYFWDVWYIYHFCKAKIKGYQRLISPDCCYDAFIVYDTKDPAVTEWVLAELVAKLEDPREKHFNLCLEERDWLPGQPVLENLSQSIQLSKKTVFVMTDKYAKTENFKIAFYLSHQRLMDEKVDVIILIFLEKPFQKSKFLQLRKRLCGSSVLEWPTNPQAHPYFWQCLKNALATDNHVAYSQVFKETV
The experiment in a line: TLR7 cellular reporter assay (HEK293, NFκB-luc). Format: cell-based. The settings on record: HEK293 cells transfected with CMV-TLR7 and NFκB-luc, 6 hours incubation; lowest effective concentration. In outline: (§1)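 HEK293 cells transiently transfected with receptor expression vector plus NFκB-luciferase reporter, exposed to compound (added in 4% DMSO) for 6 hours at 37° C, 5% CO2. Luciferase activity measured by luminescence; dose-response curves from quadruplicate measurements.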

Test [1] deals with interferon-stimulated responsive elements (ISRE). The experiment in a line: Activation of ISRE promoter elements by conditioned media from PBMC (HEK-ISREluc). The test is classed as cell-based, human. Conditions: Homo sapiens; conditioned media from PBMC transferred to HEK-ISREluc cells, 24 hours; lowest effective concentration; read-out: PBMC LEC. In outline:
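Human PBMCs (≥2 donors, RPMI + 10% human AB serum, 2×10^5 cells/well) incubated overnight with compound; supernatant transferred to HEK293 cells stably carrying pISRE-Luc for 24 h, then luciferase read. LEC = compound concentration on PBMCs giving luciferase signal at least two-fold above assay SD; recombinant IFN-α-2a standard.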

For the next test, the target named is T2, human TLR8 (Homo sapiens, UniProt Q9NR97).
T2 construct: expressed in transfected cells; host or cells: HEK293 cells, transient transfection with TLR8 plasmid and NFκB-luc plasmid
T2 sequence (Q9NR97 27-1041): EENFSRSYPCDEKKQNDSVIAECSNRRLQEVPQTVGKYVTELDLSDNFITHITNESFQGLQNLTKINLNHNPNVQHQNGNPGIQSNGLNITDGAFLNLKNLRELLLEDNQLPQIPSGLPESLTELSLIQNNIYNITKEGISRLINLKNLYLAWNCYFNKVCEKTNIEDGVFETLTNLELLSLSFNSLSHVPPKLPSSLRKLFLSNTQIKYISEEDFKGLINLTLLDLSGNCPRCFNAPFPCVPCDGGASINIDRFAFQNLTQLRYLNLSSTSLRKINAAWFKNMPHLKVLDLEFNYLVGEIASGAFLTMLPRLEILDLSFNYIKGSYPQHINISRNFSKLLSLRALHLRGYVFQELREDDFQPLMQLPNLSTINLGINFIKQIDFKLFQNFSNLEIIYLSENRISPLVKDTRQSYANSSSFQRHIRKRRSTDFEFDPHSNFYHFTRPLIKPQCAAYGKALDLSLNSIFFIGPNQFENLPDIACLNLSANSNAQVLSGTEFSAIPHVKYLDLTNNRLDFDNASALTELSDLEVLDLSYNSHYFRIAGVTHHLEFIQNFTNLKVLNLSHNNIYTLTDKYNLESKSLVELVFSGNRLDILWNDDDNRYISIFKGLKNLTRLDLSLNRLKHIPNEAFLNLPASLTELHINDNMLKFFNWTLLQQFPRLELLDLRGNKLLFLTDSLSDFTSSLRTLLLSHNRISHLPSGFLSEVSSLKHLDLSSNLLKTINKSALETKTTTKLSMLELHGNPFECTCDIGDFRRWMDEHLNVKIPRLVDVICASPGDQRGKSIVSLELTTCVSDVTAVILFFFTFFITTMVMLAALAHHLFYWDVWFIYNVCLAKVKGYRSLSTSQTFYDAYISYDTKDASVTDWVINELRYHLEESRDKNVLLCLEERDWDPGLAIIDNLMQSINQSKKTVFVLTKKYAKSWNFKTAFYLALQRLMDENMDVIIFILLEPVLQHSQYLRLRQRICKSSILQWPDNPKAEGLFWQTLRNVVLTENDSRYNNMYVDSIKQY
The experiment in a line: TLR8 cellular reporter assay (HEK293, NFκB-luc). The test is classed as cell-based. The settings on record: HEK293 cells transfected with CMV-TLR8 and NFκB-luc, 6 hours incubation; lowest effective concentration. An outline of the steps:
as §1

Each structure is given as a SMILES string.

With `COc1cnccc1Cn1ccc2nc(N)nc(NCc3cc(C)on3)c21` [Compound 123], the “TLR7 LEC” value at human TLR7 was found to be 0.026 µM. Besides, the minimal effective concentration in test [1] stood at 0.002 µM. In addition, at human TLR8, the “TLR8 LEC” value is more than 25 µM.
With `COCCn1ccc2nc(N)nc(NCc3cc(C)on3)c21` [Compound 128], at human TLR7, the “TLR7 LEC” value was 0.342 µM. Also, the minimal effective concentration in test [1] amounted to 0.062 µM. Besides, the “TLR8 LEC” value on human TLR8 was more than 25 µM.
In the same order, the values of `CCOc1ccccc1Cn1ccc2nc(N)nc(NCCOC)c21` [Compound 129] are 0.670 µM, 0.122 µM and more than 25 µM.
Turning to `CCCCNc1nc(N)nc2ccn(Cc3ccccc3OC(F)(F)F)c12` [Compound 130], the “TLR7 LEC” value on human TLR7 was 1.940 µM. Besides, in test [1], the minimal effective concentration is 0.804 µM. The “TLR8 LEC” value on human TLR8 was more than 25 µM.
`COCCNc1nc(N)nc2ccn(Cc3cscn3)c12` [Compound 132]: at human TLR7, the “TLR7 LEC” value is 5.99 µM. Moreover, in test [1], the minimal effective concentration was 0.879 µM. Moreover, the “TLR8 LEC” value on human TLR8 was more than 25 µM.
Consider `CCCCNc1nc(N)nc2ccn(Cc3ccccc3OCC)c12` [Compound 133], for which, on human TLR7, the “TLR7 LEC” value is 0.07 µM. Also, in test [1], the minimal effective concentration stood at 0.023 µM. For the same molecule, the “TLR8 LEC” value on human TLR8 is more than 25 µM.
With `CCCCNc1nc(N)nc2ccn(Cc3cc(OC4CCOC4)c(OC)cn3)c12` (stereo not drawn) [Compound 134], the “TLR7 LEC” value at human TLR7 was 1.20 µM. The minimal effective concentration in test [1] was 0.104 µM. Moreover, the “TLR8 LEC” value on human TLR8 was more than 25 µM.
The matching figures for `COCCNc1nc(N)nc2ccn(Cc3cc(OC4CCOC4)c(OC)cn3)c12` (stereo not drawn) [Compound 135]: 12.5 µM, 4.05 µM and more than 25 µM.
Take `CC(C)OCCNc1nc(N)nc2ccn(Cc3ccccn3)c12` [Compound 137]: the “TLR7 LEC” value on human TLR7 was found to be 13.8 µM. For the same molecule, the minimal effective concentration in test [1] turned out to be 2.03 µM. Further, the “TLR8 LEC” value on human TLR8 is more than 25 µM.
In the case of `Nc1nc(NCC2CCCO2)c2c(ccn2Cc2ccccn2)n1` (stereo not drawn) [Compound 139], the “TLR7 LEC” value at human TLR7 is 1.41 µM. Further, in test [1], the minimal effective concentration worked out at 0.588 µM. For the same molecule, the “TLR8 LEC” value on human TLR8 was more than 25 µM.
In the same order, the values of `Cc1cc(CNc2nc(N)nc3ccn(Cc4cccc(C(F)(F)F)n4)c23)no1` [Compound 143] are 0.10 µM, 0.016 µM and more than 25 µM.
On to `COCCNc1nc(N)nc2ccn(Cc3ncc(C)c(OC)c3C)c12` [Compound 147], for which the “TLR7 LEC” value at human TLR7 was found to be 4.49 µM. In addition, the minimal effective concentration in test [1] came to 2.02 µM. The “TLR8 LEC” value at human TLR8 was more than 25 µM.
In the case of `CCCCNc1nc(N)nc2ccn(C[C@H]3CCCO3)c12` [Compound 148], on human TLR7, the “TLR7 LEC” value turned out to be 0.16 µM. Besides, in test [1], the minimal effective concentration was determined as 0.056 µM. The “TLR8 LEC” value on human TLR8 was 3.93 µM.
Regarding `CCCCNc1nc(N)nc2ccn(Cc3cccc4c3OCC4)c12` [Compound 149], on human TLR7, the “TLR7 LEC” value came to 0.02 µM. Moreover, the minimal effective concentration in test [1] was determined as 0.006 µM. On human TLR8, the “TLR8 LEC” value is more than 25 µM.
The matching figures for `COCCNc1nc(N)nc2ccn(Cc3cccc4c3OCC4)c12` [Compound 150]: 0.25 µM, 0.054 µM and more than 25 µM.
The matching figures for `Cc1cc(CNc2nc(N)nc3ccn(Cc4cccc(CN5CCCC5)c4)c23)no1` [Compound 153]: 0.05 µM, 0.002 µM and more than 25 µM.
The matching figures for `Cc1cc(CNc2nc(N)nc3ccn(Cc4cscn4)c23)no1` [Compound 154]: 0.08 µM, 0.017 µM and more than 25 µM.
As for `Cc1cc(CNc2nc(N)nc3ccn(Cc4cn5ccccc5n4)c23)no1` [Compound 157], on human TLR7, the “TLR7 LEC” value is 0.03 µM. For the same molecule, the minimal effective concentration in test [1] was found to be 0.003 µM. Besides, the “TLR8 LEC” value on human TLR8 is more than 25 µM.
`Cc1cc(CNc2nc(N)nc3ccn(Cc4cccc(Cl)n4)c23)no1` [Compound 159]: the “TLR7 LEC” value at human TLR7 came out at 0.05 µM. In test [1], the minimal effective concentration is 0.019 µM. On human TLR8, the “TLR8 LEC” value was more than 25 µM.
Turning to `COCCNc1nc(N)nc2ccn(C[C@H]3CCCO3)c12` [Compound 160], on human TLR7, the “TLR7 LEC” value was 8.07 µM. In addition, in test [1], the minimal effective concentration came to 1.81 µM. Also, the “TLR8 LEC” value on human TLR8 was more than 25 µM.
In the same order, the values of `CCCCNc1nc(N)nc2ccn(Cc3ccccc3OC(F)F)c12` [Compound 161] are 0.02 µM, 0.009 µM and more than 25 µM.
For the molecule `COCCNc1nc(N)nc2ccn(Cc3ccccc3OC(F)F)c12` [Compound 162], the “TLR7 LEC” value at human TLR7 is 0.32 µM. The minimal effective concentration in test [1] amounted to 0.128 µM. For the same molecule, at human TLR8, the “TLR8 LEC” value was more than 25 µM.
With `CCCCNc1nc(N)nc2ccn(Cc3cccc4c3OCCO4)c12` [Compound 163], the “TLR7 LEC” value on human TLR7 is less than 0.01 µM. Besides, the minimal effective concentration in test [1] was 0.001 µM. Moreover, at human TLR8, the “TLR8 LEC” value stood at 0.75 µM.
As for `COCCNc1nc(N)nc2ccn(Cc3cccc4c3OCCO4)c12` [Compound 164], the “TLR7 LEC” value at human TLR7 worked out at 0.04 µM. In addition, the minimal effective concentration in test [1] stood at 0.025 µM. Besides, the “TLR8 LEC” value on human TLR8 is 15.93 µM.
The matching figures for `COc1ccnc(Cn2ccc3nc(N)nc(NCc4cc(C)on4)c32)c1` [Compound 167]: 0.09 µM, 0.008 µM and more than 25 µM.
On to `COc1ccnc(Cn2ccc3nc(N)nc(NCc4cc(C)on4)c32)c1OC` [Compound 168], for which, at human TLR7, the “TLR7 LEC” value came out at 0.09 µM. Besides, the minimal effective concentration in test [1] was 0.011 µM. The “TLR8 LEC” value on human TLR8 is more than 25 µM.
For `COc1c(C)cnc(Cn2ccc3nc(N)nc(NCc4cc(C)on4)c32)c1C` [Compound 169], the “TLR7 LEC” value on human TLR7 was found to be 0.04 µM. Besides, in test [1], the minimal effective concentration amounted to 0.011 µM. For the same molecule, at human TLR8, the “TLR8 LEC” value was more than 25 µM.
On to `Cc1cc(CNc2nc(N)nc3ccn(Cc4cccc(C(N)=O)n4)c23)no1` [Compound 172], for which the “TLR7 LEC” value on human TLR7 is 1.40 µM. The minimal effective concentration in test [1] was 0.017 µM. The “TLR8 LEC” value on human TLR8 was more than 25 µM.
